Test results published in patent publication US20100285139A1, “PHARMACEUTICAL COMPOSITION FOR THE PROPHYLAXIS AND/OR SYMPTOMATIC TREATMENT OF CYSTIC FIBROSIS” (CYCNAD GMBH & CO., KG, priority 2007, published 2010).

System: Pseudomonas aeruginosa
Experiment: Susceptibility to infection: Pseudomonas aeruginosa bacterial count in the lung after intranasal infection
Assay type: in vivo, mice
Protocol: The bacteria were cultured for 14 to 14.5 hours on TSA agar plates (Becton Dickinson). Fresh plates were used for at most 2 weeks for this. The bacteria were then transferred to Erlenmeyer flasks in 40 ml of a prewarmed and sterile buffer (TSB, Becton Dickinson). The optical density (OD) or extinction was adjusted to 0.225 (corresponds to 5.5×10^8 CFU/ml) and the bacteria were incubated for 60 minutes at 37° C. with shaking at 125 rpm. The quality of the agar plates and of TSB and the shaking speed were crucial for the obtainment of reproducible results. In this way, it was possible to obtain a Pseudomonas aeruginosa population exactly in the early log phase (the bacteria replicated approximately by 10-fold within an incubation time of 60 minutes). The fact that the bacteria were bacteria of the early log phase was extremely important to obtain reproducible conditions for the subsequent infection with the experimental animals. The bacteria were centrifuged at 2800 rpm (1600×g) in a 50 ml tube. The supernatant was then carefully removed and the bacteria were resuspended in 10 ml of RPMI-1640, supplemented with 10 mM HEPES (pH 7.3). The suspension was transferred to a 15 ml tube and subsequently washed twice. Finally, the bacteria were resuspended in prewarmed HEPES/salt (HS; 132 mM NaCl, 20 mM HEPES (pH 7.4), 5 mM KCl, 1 mM CaCl2, 0.7 mM MgCl2, 0.8 mM MgSO4) and the bacterial optical density was determined. The bacteria were then diluted with prewarmed H/S to a concentration of 10^8 CFU/20 μl . The mice were then infected within the next 10 minutes. For this purpose, a syringe with a volume of 1 ml and a 30 gauge needle was used. The mice were anesthetized in ether for 10 to 15 seconds. Following this, the needle was immediately inserted 2 mm into the noses of the mice and the bacteria were carefully injected. Between the first and the last mouse which were infected, a time interval of at most 10 minutes was allowed to pass to avoid variations in the formation of viable bacterial colonies in this way. […] Subsequently, the number of bacteria in the lung was measured as a measure of the sensitivity of the mice to developing a Pseudomonas aeruginosa infection. […] The bacterial colonies were counted after 15 hours growth at 37° C. as a measure of the number of pulmonary bacteria and thus as a measure of an infection.
Wild-type mice and Cftr-deficient mice were inhaled with a solution of 4 mg/l of amitriptyline, 12.5 mg/l of trimipramine, 9 mg/l of desipramine, 8 mg/l of chlorprothixene, 4.5 mg/l of fluoxetine, 5 mg/l of amlodipine and 35 mg/l of sertraline. […] The lungs were removed from the experimental animals 60 minutes after the inhalation, and the susceptibility to infection of the experimental animals in relation to Pseudomonas aeruginosa was determined. […]

## CN(C)CCC=C1c2ccccc2CCc2ccccc21 [amitriptyline]
Cftr-deficient mice, treated by inhalation (4 mg/l solution), 2 h after intranasal infection with 1×10^8 CFU P. aeruginosa strain 762
  bacterial count in the lungs: 12300±4075 CFU
Cftr-deficient mice, treated by injection solution (250 micrograms i.p.), 2 h after intranasal infection
  bacterial count in the lungs: 11250±2360 CFU
wild-type mice, treated by inhalation (4 mg/l solution), 2 h after intranasal infection with 1×10^8 CFU P. aeruginosa strain 762
  bacterial count in the lungs: 3600±2892 CFU
wild-type mice, treated by injection solution (250 micrograms i.p.), 2 h after intranasal infection
  bacterial count in the lungs: 2780±1740 CFU
